Results on two molecules are retold here after US20120052125A1, “Cholesteryl Sulfate-Containing Composition As A Haemostatic” (DR. SUWELACK SKIN & HEALTH CARE AG, priority 2008, published 2012).

One data set deals with porcine whole blood. Kind of data set: Sonoclot analysis (clotting time ACT and clot rate) in recalcified porcine whole blood. It is filed as biochemical. The note with it: for ACT / clot rate: 360 μl porcine whole blood, recalcified with 20 μl 0.2 M calcium chloride, 1.1 mg carrier, SCS as 4% by wt vesicle solution. The source says:
The haemostatic effect of cholesteryl sulfate as such was investigated using a Sonoclot®Coagulation & Platelet Function Analyzer by Scienco® Inc with regard to the clotting time (ACT) and clot rate. In this case, the ACT value indicates the time until the onset of the first thickening of the blood, which matches the time required by the system for generating a first blood clot. The clot rate indicates the speed with which the clot solidifies, and is there fore a measure for fibrin formation.
For the investigations presently illustrated, different quantities of cholesteryl sulfate in the form of its sodium salt was dissolved in methanol, and aliquots were transferred into the reaction vessels. By evaporating the methanol, the cholesteryl sulfate was precipitated as a layer on the bottom of the reaction vessel. Then 360 μl of porcine citrate blood were put into the reaction vessel, and 20 μl 0.2 M calcium chloride solution were subsequently added for recalcification. Both the time until coagulation (ACT) as well as the clot formation rate were measured with the Sonoclot Analyzer.
In order to show the enhanced effects in blood clotting of the combination of cholesteryl sulphate as a haemostatic agent and a haemostatic carrier material such as collagen the Sonoclot-Test has been carried out according to example 1.
The test condition and materials were in accordance with example 1.
As a carrier material freeze-dried, milled collagen from the company Dr. Suwelack Skin & Health Care AG (SHC) as well as collagen from bovine tendon from the company Sigma Aldrich have been examined in the Sonoclot-Analyzer and compared to cholesteryl sulphate as well as to a combination of the collagen and cholesteryl sulphate (SCS).
For the examination of the collagen carrier material 1.1 mg carrier material were transferred into the reaction vessels containing 360 μl porcine whole blood. 12.5 μl isosmotic saline solution (NaCl) were subsequently admixed and 20 μl 0.2 M calcium chloride solution were subsequently added for recalcification. Both the time until coagulation (ACT) as well as the clot formation rate were measured with the Sonoclot Analyzer. High clot rate indicates fast fibrin formation and thus fast clot formation.
For the examination of the collagen carrier material in combination with cholesteryl sulphate instead of isosmotic saline solution 12.5 μl of a cholesteryl sulphate vesicle solution containing 4% by wt cholesteryl sulphate is admixed with the carrier material.
For the examination of the cholesteryl sulphate a 4% by wt vesicle solution alone was tested accordingly.
The vesicle solution was prepared as described in example 2, Nr. 2 a).

Data set [1] in a line: Solubility of cholesteryl sulfate salts. It counts as physicochemical.
Data set [2] in a line: Stability of cholesteryl sulfate salts. It is filed as physicochemical.

For the molecule `CC(C)CCC[C@@H](C)[C@H]1CC[C@H]2[C@@H]3CC=C4C[C@@H](OS(=O)(=O)[O-])CC[C@]4(C)[C@H]3CC[C@]12C.[Na+]` [12.5 μl SCS, sodium cholesteryl sulfate], in the data set on porcine whole blood (Experiment 1), the ACT worked out at 90 s and the clot rate is 17. Further, in the data set with porcine whole blood (Experiment 2), the ACT was 81 s and the clot rate turned out to be 29. Moreover, the effect on coagulation result in the data set with porcine whole blood (non-activated system, no pre-incubation) is listed as “coagulation-promoting effect”. Moreover, the water-solubility entry in data set [1] is listed as “only small water-solubility”.
On to `CC(C)CCC[C@@H](C)[C@H]1CC[C@H]2[C@@H]3CC=C4C[C@@H](OS(=O)(=O)[O-])CC[C@]4(C)[C@H]3CC[C@]12C.[K+]` [potassium cholesteryl sulfate], for which the “stability compared with sodium cholesteryl sulfate” value in data set [2] is “greater stability”. Also, the “solubility compared with sodium cholesteryl sulfate” value in data set [1] (e.g. in methanol) is listed as “less soluble”. Also, in data set [1], the water-solubility entry is recorded as “only small water-solubility”.
